How the values were obtained:
urease = urease (Canavalia ensiformis, UniProt P07374); conditions: read-out: Urease assay IC50; means ± S.E.M. of three parallel measurements
Description: Solutions of chiral thioureas (1 – 17) were prepared at four different concentrations, i.e., 400, 200, 100, and 50 μM for urease inhibitory assay in EtOH. Additionally, EtOH was used as a control, while thiourea was used as urease standards. […] The spectrophotometric analysis of urease inhibitory activity was performed according to the literature procedures by measuring ammonia production using the indophenol method as described earlier [37].
(§1) The bioactivity tests were carried out in triplicate at four different concentrations. Results are given as IC50 (μg/mL). The data were the mean ± S.E.M. (standard error of the meaning) of triplicate analyses of each concentration under the 95 % reliability (p < 0.05).

[1] = target: acetylcholinesterase (AChE) from electric eel (Electrophorus electricus, UniProt O42275); conditions: read-out: AChE assay IC50; means ± S.E.M. of three parallel measurements
Description: (§2) Herein, acetylcholinesterase (AChE) from electric eel and butyrylcholinesterase (BChE) horse serum was used. The acetylthiocholine iodide and butyryl thiocholine chloride were utilized as substrates.
as §1

tyrosinase = assay: Tyrosinase inhibitory activity; type: biochemical; conditions: means ± S.E.M. of three parallel measurements
Description: The spectrophotometric analysis of tyrosinase inhibitory activities was performed according to the slightly modified literature procedures of Hearing.

[2] = target: butyrylcholinesterase (BChE) horse serum (Equus caballus, UniProt P81908); assay: Anticholinesterase inhibitory activity, BChE assay (Ellman's method); conditions: read-out: BChE assay IC50; means ± S.E.M. of three parallel measurements
Chain of butyrylcholinesterase (BChE) horse serum (P81908 whole entry): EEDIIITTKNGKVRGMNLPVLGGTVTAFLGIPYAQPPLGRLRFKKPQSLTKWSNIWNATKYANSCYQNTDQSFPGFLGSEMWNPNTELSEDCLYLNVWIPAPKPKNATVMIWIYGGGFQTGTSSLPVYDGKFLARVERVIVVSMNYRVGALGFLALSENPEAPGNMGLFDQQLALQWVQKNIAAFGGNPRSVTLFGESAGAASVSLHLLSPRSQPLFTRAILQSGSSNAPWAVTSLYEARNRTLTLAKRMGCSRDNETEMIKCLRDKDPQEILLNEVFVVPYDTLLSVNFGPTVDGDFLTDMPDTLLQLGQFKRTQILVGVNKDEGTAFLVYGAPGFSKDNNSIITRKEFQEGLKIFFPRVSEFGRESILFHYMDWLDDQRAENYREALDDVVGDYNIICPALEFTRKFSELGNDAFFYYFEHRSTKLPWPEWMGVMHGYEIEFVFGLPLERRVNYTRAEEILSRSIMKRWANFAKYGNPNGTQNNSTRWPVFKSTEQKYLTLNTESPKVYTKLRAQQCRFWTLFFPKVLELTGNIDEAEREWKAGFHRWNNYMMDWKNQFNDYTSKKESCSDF
Description: as §2, §1

Chain of acetylcholinesterase (AChE) from electric eel (O42275 24-633): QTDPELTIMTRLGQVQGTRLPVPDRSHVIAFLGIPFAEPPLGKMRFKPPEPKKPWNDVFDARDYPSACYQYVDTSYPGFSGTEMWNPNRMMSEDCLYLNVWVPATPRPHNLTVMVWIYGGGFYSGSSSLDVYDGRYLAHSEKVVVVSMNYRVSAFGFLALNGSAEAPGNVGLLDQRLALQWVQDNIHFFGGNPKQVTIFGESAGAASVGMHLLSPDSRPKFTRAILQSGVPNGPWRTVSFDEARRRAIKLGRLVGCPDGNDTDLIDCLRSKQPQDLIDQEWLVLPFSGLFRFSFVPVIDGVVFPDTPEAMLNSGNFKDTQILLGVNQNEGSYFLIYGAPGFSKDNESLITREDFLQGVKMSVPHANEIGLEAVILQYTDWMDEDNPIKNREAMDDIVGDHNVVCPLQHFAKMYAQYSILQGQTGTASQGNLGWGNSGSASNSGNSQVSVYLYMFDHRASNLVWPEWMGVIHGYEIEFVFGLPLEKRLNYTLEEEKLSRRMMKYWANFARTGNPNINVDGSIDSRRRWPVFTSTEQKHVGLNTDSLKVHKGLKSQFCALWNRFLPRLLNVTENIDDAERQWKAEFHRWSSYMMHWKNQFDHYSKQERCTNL
Chain of urease (P07374 whole entry, looked up): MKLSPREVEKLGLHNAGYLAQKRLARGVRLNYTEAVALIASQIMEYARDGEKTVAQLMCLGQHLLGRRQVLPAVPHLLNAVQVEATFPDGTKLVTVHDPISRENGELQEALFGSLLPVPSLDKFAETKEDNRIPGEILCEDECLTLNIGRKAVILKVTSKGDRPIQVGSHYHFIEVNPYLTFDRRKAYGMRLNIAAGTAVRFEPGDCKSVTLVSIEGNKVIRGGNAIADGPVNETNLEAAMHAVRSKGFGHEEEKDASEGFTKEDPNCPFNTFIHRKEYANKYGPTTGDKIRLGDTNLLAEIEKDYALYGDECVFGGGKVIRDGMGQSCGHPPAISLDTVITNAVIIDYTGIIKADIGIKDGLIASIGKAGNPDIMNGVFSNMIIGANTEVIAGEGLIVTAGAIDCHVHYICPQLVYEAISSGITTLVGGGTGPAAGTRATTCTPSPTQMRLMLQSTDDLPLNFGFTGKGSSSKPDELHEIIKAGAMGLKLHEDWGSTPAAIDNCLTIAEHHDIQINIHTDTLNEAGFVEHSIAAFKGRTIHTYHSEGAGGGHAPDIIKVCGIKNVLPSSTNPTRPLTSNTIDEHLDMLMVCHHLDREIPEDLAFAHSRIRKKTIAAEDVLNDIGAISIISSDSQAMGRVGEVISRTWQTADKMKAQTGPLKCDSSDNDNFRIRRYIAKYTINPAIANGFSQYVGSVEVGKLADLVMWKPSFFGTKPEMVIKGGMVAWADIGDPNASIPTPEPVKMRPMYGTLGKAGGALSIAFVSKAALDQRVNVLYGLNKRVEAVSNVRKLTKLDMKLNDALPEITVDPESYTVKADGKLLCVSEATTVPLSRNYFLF

Compound	IC50 (urease) [µM]	IC50 [1] [µM]	IC50 (tyrosinase) [µM]	IC50 [2] [µM]
NC(N)=S [Thiourea]	24.2 ± 0.3	–	–	–
N-phenyl-N′-(2-mercapto-carboxyethanyl)thiourea [Compound 1]	–	23.4 ± 1.2	9700 ± 1000	66 ± 0.1
N-(3,4-dimethoxyphenyl)-N′-(2-mercapto-carboxyethanyl)thiourea [Compound 12]	–	7.8 ± 0.6	1600 ± 600	54 ± 1.3
N-(2,5-dichlorophenyl)-N′-(2-mercapto-carboxyethanyl)thiourea [Compound 15]	–	44.6 ± 0.3	22200 ± 900	82.9 ± 0.4
N-(4-bromophenyl)-N′-(2-mercapto-carboxyethanyl)thiourea [Compound 2]	–	36.4 ± 0.2	28800 ± 100	75.1 ± 0.5
N-(4-fluorophenyl)-N′-(2-mercapto-carboxyethanyl)thiourea [Compound 4]	–	28.5 ± 0.5	12500 ± 300	70.4 ± 0.9
N-(3,5-dimethoxyphenyl)-N′-(2-mercapto-carboxyethanyl)thiourea [Compound 13]	–	5.7 ± 1	2200 ± 400	37.2 ± 0.1
N-(3,4,5-trimethoxyphenyl)-N′-(2-mercapto-carboxyethanyl)thiourea [Compound 14]	–	4.8 ± 0.9	1100 ± 100	29.5 ± 1.1
N-(2-chloro-5-(trifluoromethyl)phenyl)-N′-(2-mercapto-carboxyethanyl)thiourea [Compound 9]	–	–	15700 ± 500	80 ± 0.6
N-(4-cyanophenyl)-N′-(2-mercapto-carboxyethanyl)thiourea [Compound 7]	–	46.8 ± 1.3	35000 ± 1100	84.4 ± 0.9
N-(2,4-dimethoxyphenyl)-N′-(2-mercapto-carboxyethanyl)thiourea [Compound 10]	–	6.8 ± 1.1	1500 ± 300	45.8 ± 0.4
N-(4-(dimethylamino)phenyl)-N′-(2-mercapto-carboxyethanyl)thiourea [Compound 16]	–	4.2 ± 0.6	4700 ± 300	24.6 ± 0.7
N-(4-(diethylamino)phenyl)-N′-(2-mercapto-carboxyethanyl)thiourea [Compound 17]	–	3.9 ± 0.6	5300 ± 800	18.1 ± 0.5
N-(4-(trifluoromethyl)phenyl)-N′-(2-mercapto-carboxyethanyl)thiourea [Compound 5]	–	16.7 ± 0.2	10400 ± 200	64.3 ± 0.7
N-(2,5-dimethoxyphenyl)-N′-(2-mercapto-carboxyethanyl)thiourea [Compound 11]	–	7.2 ± 0.5	2900 ± 200	49.7 ± 0.9
N-(4-methoxyphenyl)-N′-(2-mercapto-carboxyethanyl)thiourea [Compound 6]	–	8.1 ± 0.9	1900 ± 500	58.2 ± 0.1
N-(4-chlorophenyl)-N′-(2-mercapto-carboxyethanyl)thiourea [Compound 3]	–	31.7 ± 0.8	16100 ± 900	72.8 ± 1.1
N-(5-chloro-2-methoxyphenyl)-N′-(2-mercapto-carboxyethanyl)thiourea [Compound 8]	–	9.5 ± 1.2	4000 ± 600	61.2 ± 0.5

Reference: article PMC10503972, “Synthesis, predictions of drug-likeness, and pharmacokinetic properties of some chiral thioureas as potent enzyme inhibition agents” (Turkish Journal of Chemistry, 2021)
